Measurements from the NIST ThermoML archive (doi:10.1021/acs.jced.9b00794).

Assay: mn = molality of the nth substance listed, in mol/kg
Settings: 99.6 kPa, Liquid, Vibrating tube method

NC(N)=O [urea] + O
mass density [kg/m3]
Settings	288.15 K	298.15 K	308.15 K	318.15 K	328.15 K
m1 = 0.09134	1000.61	998.5	995.42	991.58	987.02
m1 = 0.2167	1002.67	1000.46	997.32	993.41	988.81
m1 = 0.3509	1004.84	1002.52	999.32	995.36	990.71
m1 = 0.5181	1007.5	1005.07	1001.77	997.75	993.05
m1 = 0.6698	1009.88	1007.34	1003.96	999.88	995.14
m1 = 0.8161	1012.14	1009.5	1006.05	1001.91	997.13
m1 = 0.9745	1014.54	1011.8	1008.27	1004.08	999.25
m1 = 1.195	1017.83	1014.96	1011.32	1007.05	1002.16
m1 = 1.33	1019.8	1016.85	1013.15	1008.83	1003.92
m1 = 1.489	1022.09	1019.05	1015.27	1010.91	1005.95
m1 = 1.6	1023.67	1020.57	1016.75	1012.35	1007.36
m1 = 1.707	1025.18	1022.02	1018.15	1013.72	1008.7
m1 = 1.898	1027.81	1024.56	1020.6	1016.12	1011.06
m1 = 2.034	1029.63	1026.33	1022.32	1017.8	1012.71

NC(N)=O [urea] + NC=O
mass density [kg/m3]
Settings	288.15 K	298.15 K	308.15 K	318.15 K	328.15 K
m1 = 0.1057	1138.95	1130.54	1122.1	1113.61	1105.1
m1 = 0.1893	1139.77	1131.36	1122.91	1114.44	1105.94
m1 = 0.3308	1141.12	1132.72	1124.29	1115.82	1107.33
m1 = 0.4766	1142.51	1134.11	1125.69	1117.23	1108.75
m1 = 0.675	1144.34	1135.96	1127.55	1119.11	1110.64
m1 = 0.7518	1145.05	1136.67	1128.26	1119.83	1111.37
m1 = 0.8498	1145.93	1137.56	1129.16	1120.74	1112.28
m1 = 1.07	1147.9	1139.54	1131.15	1122.75	1114.3
m1 = 1.292	1149.82	1141.49	1133.11	1124.72	1116.29
m1 = 1.33	1150.15	1141.82	1133.44	1125.05	1116.63
m1 = 1.424	1150.95	1142.62	1134.26	1125.87	1117.45
m1 = 1.555	1152.06	1143.73	1135.38	1127	1118.59
m1 = 1.681	1153.09	1144.79	1136.43	1128.06	1119.66
m1 = 1.718	1153.4	1145.09	1136.75	1128.38	1119.98
m1 = 1.824	1154.26	1145.96	1137.63	1129.27	1120.87
m1 = 1.999	1155.67	1147.39	1139.06	1130.7	1122.32
